Measurements from US12187723B2 (BRISTOL-MYERS SQUIBB COMPANY, priority 2019, dated 2025).

Target: T1, human TLR9 (Homo sapiens, UniProt Q9NR96)
T1 construct: host or cells: HEK-Blue cells
T1 sequence (Q9NR96 26-1032): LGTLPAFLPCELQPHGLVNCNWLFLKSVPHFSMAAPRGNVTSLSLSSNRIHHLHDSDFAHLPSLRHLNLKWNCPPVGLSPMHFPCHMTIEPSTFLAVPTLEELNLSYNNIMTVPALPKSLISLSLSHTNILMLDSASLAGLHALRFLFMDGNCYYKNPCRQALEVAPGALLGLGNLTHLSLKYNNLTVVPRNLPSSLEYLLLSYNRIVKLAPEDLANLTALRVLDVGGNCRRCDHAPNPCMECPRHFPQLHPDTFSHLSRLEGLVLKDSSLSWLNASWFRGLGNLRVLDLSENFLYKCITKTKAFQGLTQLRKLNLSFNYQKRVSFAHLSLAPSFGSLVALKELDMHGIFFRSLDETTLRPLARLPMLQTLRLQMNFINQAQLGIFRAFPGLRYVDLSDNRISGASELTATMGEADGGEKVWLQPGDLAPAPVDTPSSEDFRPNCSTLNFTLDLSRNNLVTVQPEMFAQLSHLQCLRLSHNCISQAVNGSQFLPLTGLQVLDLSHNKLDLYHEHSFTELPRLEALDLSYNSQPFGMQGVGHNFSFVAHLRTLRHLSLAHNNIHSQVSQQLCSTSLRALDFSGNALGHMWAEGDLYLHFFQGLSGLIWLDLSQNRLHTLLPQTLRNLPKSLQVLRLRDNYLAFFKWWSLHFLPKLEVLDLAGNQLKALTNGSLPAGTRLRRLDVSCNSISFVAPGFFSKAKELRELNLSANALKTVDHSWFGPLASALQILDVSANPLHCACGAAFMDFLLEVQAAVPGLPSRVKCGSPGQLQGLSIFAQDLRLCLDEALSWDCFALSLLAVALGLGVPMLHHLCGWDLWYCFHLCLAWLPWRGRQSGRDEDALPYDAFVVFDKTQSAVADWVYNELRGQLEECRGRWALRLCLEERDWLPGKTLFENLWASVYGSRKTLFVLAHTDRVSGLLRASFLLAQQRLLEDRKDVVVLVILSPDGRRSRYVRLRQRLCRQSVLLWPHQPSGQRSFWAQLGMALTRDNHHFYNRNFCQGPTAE
Experiment: TLR9 inhibition reporter assay (HEK-Blue SEAP)
Assay type: cell-based
Conditions: HEK-Blue cells overexpressing human TLR9, ODN2006 5 nM, 22 hour incubation
How it was run: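 Compound treatment: 30 min, RT, 0.05 nM–50 μM final. Agonist: TLR7 gardiquimod 7.5 μM; TLR8 R848 15.9 μM; TLR9 ODN2006 5 nM. Incubation 22 h, 37 °C, 5% CO2. Readout SEAP, HEK-Blue Detection.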

| Compound | IC50 [µM] |
| --- | --- |
| Cc1cc2c(cc1-c1cc(C)c3ncnn3c1)[nH]c(=O)n2[C@H]1CCCN(C2COC2)C1 [Example 14, (S)-6-methyl-5-(8-methyl-[1,2,4]triazolo[1,5-a]pyridin-6-yl)-1-(1-(oxetan-3-yl)piperidin-3-yl)-1,3-dihydro-2H-benzo[d]imidazol-2-one] | > 50 |
| CCC(CC)CN[C@H]1CC[C@@H](n2c(=O)[nH]c3cc(-c4cn5ncnc5c(C)c4C)c(C(C)C)cc32)CC1 [Example 198] | 2.13 |
| CCc1cc2c(cc1-c1cc(OC)c3ncnn3c1)[nH]c(=O)n2[C@@H]1CCCN(C2CCCOC2)C1 (stereo partly drawn) [Example 215, 6-ethyl-5-(8-methoxy-[1,2,4]triazolo[1,5-a]pyridin-6-yl)-1-((3R)-1-(tetrahydro-2H-pyran-3-yl)piperidin-3-yl)-1,3-dihydro-2H-benzo[d]imidazol-2-one] | 21 |
| CCc1cc2c(cc1-c1cc(OC)c3ncnn3c1)[nH]c(=O)n2[C@@H]1CCCN(CC(C)C)C1 [Example 177, (R)-6-ethyl-1-(1-isobutylpiperidin-3-yl)-5-(8-methoxy-[1,2,4]triazolo[1,5-a]pyridin-6-yl)-1,3-dihydro-2H-benzo[d]imidazol-2-one] | 10.7 |
| CCN1CCC[C@@H](n2c(=O)[nH]c3cc(-c4cc(C)c5ncnn5c4)c(C)cc32)C1 [Example 16, (R)-1-(1-ethylpiperidin-3-yl)-6-methyl-5-(8-methyl-[1,2,4]triazolo[1,5-a]pyridin-6-yl)-1,3-dihydro-2H-benzo[d]imidazol-2-one] | 8.95 |
| COc1cc(-c2cc3[nH]c(=O)n([C@H]4CC[C@H](N(CC5CC5)CC5CC5)CC4)c3cc2C(C)C)cn2ncnc12 [Example 206, 1-((1r,4s)-4-(bis(cyclopropylmethyl)amino)cyclohexyl)-6-isopropyl-5-(8-methoxy-[1,2,4]triazolo[1,5-a]pyridin-6-yl)-1,3-dihydro-2H-benzo[d]imidazol-2-one] | 6.53 |
| CCN[C@H]1CC[C@@H](n2c(=O)[nH]c3cc(-c4cn5ncnc5c(C)c4C)c(C(C)C)cc32)CC1 [Example 189, 5-(7,8-dimethyl-[1,2,4]triazolo[1,5-a]pyridin-6-yl)-1-((1s,4s)-4-(ethylamino)cyclohexyl)-6-isopropyl-1,3-dihydro-2H-benzo[d]imidazol-2-one] | > 50 |
| COc1cc(-c2cc3[nH]c(=O)n(C4CCC(N5CC(O)(C(F)(F)F)C5)CC4)c3cc2C(C)C)cn2ncnc12 (single isomer, unassigned) [Example 242, 1-(4-(3-hydroxy-3-(trifluoromethyl)azetidin-1-yl)cyclohexyl)-6-isopropyl-5-(8-methoxy-[1,2,4]triazolo[1,5-a]pyridin-6-yl)-1,3-dihydro-2H-benzo[d]imidazol-2-one] | 23.7 |
| COc1cc(-c2cc3[nH]c(=O)n([C@@H]4CCCN(CC5CCCC5)C4)c3cc2C(C)C)cn2ncnc12 [Example 211, (R)-1-(1-(cyclopentylmethyl)piperidin-3-yl)-6-isopropyl-5-(8-methoxy-[1,2,4]triazolo[1,5-a]pyridin-6-yl)-1,3-dihydro-2H-benzo[d]imidazol-2-one] | 2.98 |
| COc1cc(-c2cc3[nH]c(=O)n([C@H]4CCCN(CC(N)=O)C4)c3cc2C(C)C)cn2ncnc12 [Example 220, (S)-2-(3-(6-isopropyl-5-(8-methoxy-[1,2,4]triazolo[1,5-a]pyridin-6-yl)-2-oxo-2,3-dihydro-1H-benzo[d]imidazol-1-yl)piperidin-1-yl)acetamide] | > 50 |
| CCc1cc2c(cc1-c1cc(OC)c3ncnn3c1)[nH]c(=O)n2[C@@H]1CCCN(C)C1 [Example 174, (R)-6-ethyl-5-(8-methoxy-[1,2,4]triazolo[1,5-a]pyridin-6-yl)-1-(1-methylpiperidin-3-yl)-1,3-dihydro-2H-benzo[d]imidazol-2-one] | 7.34 |
| COc1cc(-c2cc3[nH]c(=O)n([C@@H]4CCCN(C5CCOC5)C4)c3cc2C(C)C)cn2ncnc12 (stereo partly drawn) [Example 216, 6-isopropyl-5-(8-methoxy-[1,2,4]triazolo[1,5-a]pyridin-6-yl)-1-((3R)-1-(tetrahydrofuran-3-yl)piperidin-3-yl)-1,3-dihydro-2H-benzo[d]imidazol-2-one] | > 50 |
| COc1cc(-c2cc3[nH]c(=O)n([C@@H]4CCCN(C5CCCOC5)C4)c3cc2C(C)C)cn2ncnc12 (single isomer, unassigned) [Example 219] | 25.1 |
| COc1cc(-c2cc3[nH]c(=O)n([C@@H]4CCCN(C5CCCOC5)C4)c3cc2C(C)C)cn2ncnc12 (single isomer, unassigned) [Example 218] | 24.2 |
